Tests used:
Format in all cases: in vivo
[1] = tested on: Surinam grass (Brachiaria decumbens); assay: Test B pre-/postemergence plant response; details: for Plant response rating, Surinam Grass: Postemergence
Text: (§1) Seeds of plant species selected from blackgrass (Alopecurus myosuroides), downy bromegrass (Bromus tectorum), green foxtail (Setaria viridis), Italian ryegrass (Lolium multiflorum), wheat (Triticum aestivum), wild oat (Avena fatua), deadnettle (henbit deadnettle, Lamium amplexicaule), galium (catchweed bedstraw, Galium aparine), bermudagrass (Cynodon dactylon), Surinam grass (Brachiaria decumbens), cocklebur (Xanthium strumarium), corn (Zea mays), large crabgrass (Digitaria sanguinalis), woolly cupgrass (Eriochloa villosa), giant foxtail (Setaria faberii), goosegrass (Eleusine indica), johnsongrass (Sorghum halepense), kochia (Kochia scoparia), lambsquarters (Chenopodium album), morningglory (Ipomoea coccinea), nightshade (eastern black nightshade, Solanum ptycanthum), yellow nutsedge (Cyperus esculentus), pigweed (Amaranthus retroflexus), ragweed (common ragweed, Ambrosia elatior), Russian thistle (Salsola kali), soybean (Glycine max), sunflower (common oilseed sunflower, Helianthus annuus) and velvetleaf (Abutilon theophrasti) were planted into a blend of loam soil and sand and treated preemergence with test compounds formulated in a non-phytotoxic solvent mixture which included a surfactant.
(§2) At the same time, plants selected from these crop and weed species and also winter barley (Hordeum vulgare), canarygrass (Phalaris minor), chickweed (Stellaria media) and windgrass (Apera spica-venti) were planted in pots containing Redi-Earth® planting medium (Scotts Company, 14111 Scottslawn Road, Marysville, Ohio 43041) comprising spaghnum peat moss, vermiculite, wetting agent and starter nutrients and treated with postemergence applications of some of the test chemicals formulated in the same manner. Plants ranged in height from 2 to 18 cm (1- to 4-leaf stage) for postemergence treatments.
(§3) Treated plants and controls were maintained in a greenhouse for 13 to 15 days, after which time all treated plants were visually evaluated and compared to controls. Plant response ratings, summarized in Table B, are based on a scale of 0 to 100 where 0 is no effect and 100 is complete control. A dash (-) response means no test result.

[2] = tested on: Italian ryegrass (Lolium multiflorum); assay: Test B pre-/postemergence plant response; details: for Plant response rating, Ryegrass, Italian: Postemergence
Text: as §1, §2, §3

corn (Zea mays) = assay: Test B pre-/postemergence plant response; details: for Plant response rating, Corn: Postemergence
Text: as §1, §2, §3

wild oat (Avena fatua) = assay: Test B pre-/postemergence plant response
Text: as §1, §2, §3

[3] = tested on: pigweed (Amaranthus retroflexus); assay: Test B pre-/postemergence plant response
Text: as §1, §2, §3

[4] = tested on: cocklebur (Xanthium strumarium); assay: Test B pre-/postemergence plant response
Text: as §1, §2, §3

[5] = tested on: morningglory (Ipomoea coccinea); assay: Test B pre-/postemergence plant response
Text: as §1, §2, §3

[6] = tested on: blackgrass (Alopecurus myosuroides); assay: Test B pre-/postemergence plant response
Text: as §1, §2, §3

[7] = tested on: giant foxtail (Setaria faberii); assay: Test B pre-/postemergence plant response
Text: as §1, §2, §3

[8] = tested on: downy bromegrass (Bromus tectorum); assay: Test B pre-/postemergence plant response
Text: as §1, §2, §3

[9] = tested on: canarygrass (Phalaris minor); assay: Test B postemergence plant response
Procedure, shortened: (§4)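 Plants grown in peat/vermiculite medium were sprayed postemergence at 2–18 cm height (1- to 4-leaf stage). After 13–15 days in the greenhouse, response was rated visually against untreated controls on a 0–100 scale (0 no effect, 100 complete control).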

[10] = tested on: chickweed (Stellaria media); assay: Test B postemergence plant response
Procedure, shortened: as §4

[11] = tested on: windgrass (Apera spica-venti); assay: Test B postemergence plant response; details: for Plant response rating, Windgrass: Postemergence
Procedure, shortened: as §4

[12] = 62 g ai/ha, postemergence, 0 is no effect, 100 is complete control, 13 to 15 days
[13] = 125 g ai/ha, scale 0 to 100 (0 no effect, 100 complete control)
[14] = 250 g ai/ha, scale 0 to 100 (0 no effect, 100 complete control)
[15] = 31 g ai/ha, postemergence, scale 0 to 100, 0 is no effect, 100 is complete control
[16] = Postemergence, 125 g ai/ha, scale 0 to 100 (0 no effect, 100 complete control)
[17] = Postemergence, 250 g ai/ha, scale 0 to 100 (0 no effect, 100 complete control)
[18] = 31 g ai/ha, 0 to 100 scale (0 no effect, 100 complete control)
[19] = 62 g ai/ha, scale 0 to 100 (0 no effect, 100 complete control)
[20] = 250 g ai/ha, scale 0 to 100 (0 no effect, 100 complete control), 13 to 15 days
[21] = Postemergence, 31 g ai/ha, 0 to 100 scale (0 no effect, 100 complete control)
[22] = Postemergence, 62 g ai/ha, scale 0 to 100 (0 no effect, 100 complete control)
[23] = Postemergence, 250 g ai/ha, scale 0 to 100 (0 no effect, 100 complete control), 13 to 15 days

For CCCn1c(-c2ccc(F)cc2)ncc(C(=O)C2=C(O)CCCC2=O)c1=O [Compound 102], the “Surinam Grass plant response rating (0 to 100 scale)” value [1, 12] was 75, the “Plant response rating, Surinam Grass” value [1, 13] was 75 and the “Plant response rating, Surinam Grass” value [1, 14] was 85. For the same compound, the “Ryegrass, Italian plant response rating (0 to 100 scale)” value [2, 12] was 0, the “Plant response rating, Ryegrass, Italian” value [2, 13] was 5 and the “Plant response rating, Ryegrass, Italian” value [2, 14] was 10. The “Corn plant response rating (0 to 100 scale)” value (corn (Zea mays); [12]) was 15, the “Plant response rating, Corn” value (corn (Zea mays); [13]) was 65 and the “Plant response rating, Corn” value (corn (Zea mays); [14]) was 70. For the same compound, the “Plant response rating, Oat, Wild” value (wild oat (Avena fatua); [15]) was 5, the “Oat, Wild plant response rating (0 to 100 scale)” value (wild oat (Avena fatua); [12]) was 15 and the “Plant response rating, Oat, Wild” value (wild oat (Avena fatua); [16]) was 40. For the same compound, the “Plant response rating, Oat, Wild” value (wild oat (Avena fatua); [17]) was 80, the “Plant response rating, Pigweed” value [3, 15] was 70 and the “Pigweed plant response rating (0 to 100 scale)” value [3, 12] was 70. For the same compound, the “Plant response rating, Pigweed” value [3, 16] was 95, the “Plant response rating, Pigweed” value [3, 17] was 98 and the “Plant response rating, Cocklebur” value [4, 15] was 90. For the same compound, the “Cocklebur plant response rating (0 to 100 scale)” value [4, 12] was 95, the “Plant response rating, Cocklebur” value [4, 16] was 100 and the “Plant response rating, Cocklebur” value [4, 17] was 100. For the same compound, the “Plant response rating, Morningglory” value [5, 15] was 65, the “Morningglory plant response rating (0 to 100 scale)” value [5, 12] was 100 and the “Plant response rating, Morningglory” value [5, 16] was 100. The “Plant response rating, Morningglory” value [5, 17] was 100, the “Plant response rating, Blackgrass” value [6, 15] was 0 and the “Blackgrass plant response rating (0 to 100 scale)” value [6, 12] was 5. The “Plant response rating, Blackgrass” value [6, 16] was 30, the “Plant response rating, Blackgrass” value [6, 17] was 45 and the “Plant response rating, Foxtail, Giant” value [7, 15] was 70. The “Foxtail, Giant plant response rating (0 to 100 scale)” value [7, 12] was 75, the “Plant response rating, Foxtail, Giant” value [7, 16] was 80 and the “Plant response rating, Foxtail, Giant” value [7, 17] was 95. For the same compound, the “Plant response rating, Bromegrass, Downy” value [8, 15] was 0, the “Bromegrass, Downy plant response rating (0 to 100 scale)” value [8, 12] was 10 and the “Plant response rating, Bromegrass, Downy” value [8, 16] was 10. The “Plant response rating, Bromegrass, Downy” value [8, 17] was 30, the “Plant response rating, Canarygrass” value [9, 15] was 5 and the “Canarygrass plant response rating (0 to 100 scale)” value [9, 12] was 20. The “Plant response rating, Canarygrass” value [9, 16] was 30, the “Plant response rating, Canarygrass” value [9, 17] was 50 and the “Plant response rating, Chickweed” value [10, 15] was 60. For the same compound, the “Chickweed plant response rating (0 to 100 scale)” value [10, 12] was 80, the “Plant response rating, Chickweed” value [10, 16] was 95 and the “Plant response rating, Chickweed” value [10, 17] was 100. For the same compound, the “Windgrass plant response rating (0 to 100 scale)” value [11, 12] was 10 and the “Plant response rating, Windgrass” value [11, 13] was 60.

For COCCn1c(-c2cccc(F)c2)ncc(C(=O)C2=C(O)C3CCC(C3)C2=O)c1=O (centres unmarked) [Compound 235], the “Plant response rating, Surinam Grass” value [1, 18] was 80, the “Plant response rating, Surinam Grass” value [1, 19] was 90 and the “Plant response rating, Surinam Grass” value [1, 20] was 100. For the same compound, the “Plant response rating, Ryegrass, Italian” value [2, 18] was 30, the “Plant response rating, Ryegrass, Italian” value [2, 19] was 30 and the “Plant response rating, Ryegrass, Italian” value [2, 20] was 60. For the same compound, the “Plant response rating, Corn” value (corn (Zea mays); [18]) was 95, the “Plant response rating, Corn” value (corn (Zea mays); [19]) was 100 and the “Plant response rating, Corn” value (corn (Zea mays); [13]) was 100. For the same compound, the “Plant response rating, Corn” value (corn (Zea mays); [20]) was 100, the “Plant response rating, Oat, Wild” value (wild oat (Avena fatua); [21]) was 35 and the “Plant response rating, Oat, Wild” value (wild oat (Avena fatua); [22]) was 50. The “Plant response rating, Oat, Wild” value (wild oat (Avena fatua); [23]) was 95, the “Plant response rating, Pigweed” value [3, 21] was 100 and the “Plant response rating, Pigweed” value [3, 22] was 100. The “Plant response rating, Pigweed” value [3, 23] was 100, the “Plant response rating, Morningglory” value [5, 21] was 95 and the “Plant response rating, Morningglory” value [5, 22] was 98. The “Plant response rating, Morningglory” value [5, 16] was 100, the “Plant response rating, Morningglory” value [5, 23] was 100 and the “Plant response rating, Blackgrass” value [6, 21] was 45. For the same compound, the “Plant response rating, Blackgrass” value [6, 22] was 60, the “Plant response rating, Blackgrass” value [6, 16] was 70 and the “Plant response rating, Foxtail, Giant” value [7, 21] was 98. For the same compound, the “Plant response rating, Foxtail, Giant” value [7, 22] was 100, the “Plant response rating, Foxtail, Giant” value [7, 16] was 100 and the “Plant response rating, Foxtail, Giant” value [7, 23] was 100. For the same compound, the “Plant response rating, Bromegrass, Downy” value [8, 21] was 10, the “Plant response rating, Bromegrass, Downy” value [8, 22] was 30 and the “Plant response rating, Bromegrass, Downy” value [8, 16] was 50. The “Plant response rating, Bromegrass, Downy” value [8, 23] was 85, the “Plant response rating, Canarygrass” value [9, 21] was 20 and the “Plant response rating, Canarygrass” value [9, 22] was 30. For the same compound, the “Plant response rating, Canarygrass” value [9, 16] was 30, the “Plant response rating, Canarygrass” value [9, 23] was 30 and the “Plant response rating, Chickweed” value [10, 21] was 98. The “Plant response rating, Chickweed” value [10, 22] was 100, the “Plant response rating, Chickweed” value [10, 16] was 100 and the “Plant response rating, Chickweed” value [10, 23] was 100. The “Plant response rating, Windgrass” value [11, 18] was 85, the “Plant response rating, Windgrass” value [11, 19] was 95 and the “Plant response rating, Windgrass” value [11, 20] was 98.

Reference: patent US8952024B2, “Herbicidal pyrimidone derivatives” (E I du Pont de Nemours and Company, priority 2009, dated 2015)
